Assay results taken from patent publication US12570648B2, “6,7-dihydro-5H-pyrido[2,3-c]pyridazine derivatives and related compounds as Bcl-xL protein inhibitors and pro-apoptotic agents for treating cancer” (LES LABORATOIRES SERVIER, priority 2019, dated 2026).
pIC50, pKi: −log10 of the molar value.

Key:
[1] = target: GST(1-218)-(FACTOR_XA)-hsBCLXL(2-209) (Homo sapiens (Human), UniProt Q07817); assay: Fluorescence polarisation assay; type: binding
Experimental: Fluorescence polarization measures the rotation of a fluorescing species in solution, the larger the molecule the more polarized the fluorescence emission.
(GST UniProtKB® primary accession number P08515 and BCLXL UniProtKB® primary accession number Q07817-1), • resulting in an increase in anisotropy. If a compound is added which competitively binds to the same site as the probe, thereby releasing it, anisotropy decreases due to the increased amount of free probe.
An 11-point serial dilution of each compound was prepared in DMSO, the final buffer conditions were 10 mM 4-(2-hydroxyethyl)-1-piperazineethanesulfonic acid [HEPES], 150 mM NaCl, 0.05% Tween 20, pH 7.4 and 5% DMSO. The final protein concentration in the assay was 20 nM with the fluorescent probe present at 10 nM. […] 1; 37 (WebServer issue): W441-W445.

H146 cells = assay: H146 cell viability using MTT assay; type: cell-based; conditions: Homo sapiens, NCI-H146, 48 h exposure
How it was run: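 Cells were cultured in RPMI 1640 with 10% heat-inactivated FBS, penicillin/streptomycin and 2 mM L-glutamine, then exposed 48 h to 9 concentrations (3.16-fold series, triplicates). MTT was added for 4 h and formazan solubilised overnight in SDS/HCl. OD was read at 540 nm and IC50 fitted with four-parameter curves.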

[2] = target: His-His-(EK)-hsBCLXL(2-197)[N197C] (Homo sapiens (Human), UniProt Q07817, N197C); assay: Fluorescence quenching assay; type: binding; conditions: 1 nM Cy5-labelled protein, 400 nM PUMA peptide, 2 hours at 23° C.; KI determined from IC50
How it was run: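 Cy5-labelled BCL-xL (1 nM) with TQ5WS quencher-labelled PUMA peptide (400 nM); displacement by compound (11-point dilution) raises fluorescence. Buffer 10 mM HEPES, 150 mM NaCl, 0.05% Tween 20, pH 7.4, 5% DMSO; 2 h at 23° C, Ex 620/Em 680 nm. Ki derived from IC50.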

MOLT-4 cells = assay: MOLT-4 cell viability using MTT assay; type: cell-based; conditions: Homo sapiens, MOLT-4, 48 h, 48 h exposure
Experimental: MTT colorimetric assay is based on the mitochondrial reduction of tetrazolium salt by living cells.
Cells were cultured at 37° C. in a humidified atmosphere containing 5% CO2. […] At the end of incubation time, 15 μL of MTT solution (5 mg/ml) were added per well and the cells were incubated for another 4 h. […] IC50s were calculated using standard four-parametric curve fitting.

[3] = tested on: pre-clinical models of T-ALL and different types of solid tumors; conditions: cited from earlier work
Molt-4 = conditions: xenograft model Molt-4; cited from earlier work

Sequence of His-His-(EK)-hsBCLXL(2-197)[N197C] (Q07817 2-197 N197C): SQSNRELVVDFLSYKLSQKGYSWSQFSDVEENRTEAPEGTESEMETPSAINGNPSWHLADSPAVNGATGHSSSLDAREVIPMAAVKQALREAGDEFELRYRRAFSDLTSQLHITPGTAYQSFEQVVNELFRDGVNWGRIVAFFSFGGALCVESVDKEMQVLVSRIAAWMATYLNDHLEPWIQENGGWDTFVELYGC
Sequence of GST(1-218)-(FACTOR_XA)-hsBCLXL(2-209) (Q07817 other isoform, or with tags, fused parts or gaps): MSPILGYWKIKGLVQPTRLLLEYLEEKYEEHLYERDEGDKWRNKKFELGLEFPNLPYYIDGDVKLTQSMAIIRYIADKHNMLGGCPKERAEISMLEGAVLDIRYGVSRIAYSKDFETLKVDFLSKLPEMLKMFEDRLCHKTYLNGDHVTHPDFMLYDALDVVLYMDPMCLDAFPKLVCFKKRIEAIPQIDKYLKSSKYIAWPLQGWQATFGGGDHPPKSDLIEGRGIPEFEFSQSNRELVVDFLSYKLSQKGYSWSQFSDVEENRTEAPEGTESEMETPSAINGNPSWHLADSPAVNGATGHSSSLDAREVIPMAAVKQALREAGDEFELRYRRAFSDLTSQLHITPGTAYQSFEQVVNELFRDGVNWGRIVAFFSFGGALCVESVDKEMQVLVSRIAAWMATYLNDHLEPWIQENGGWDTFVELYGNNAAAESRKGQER

## Cc1c(Nc2nc3ccccc3s2)nnc2c1CCN2c1nc(C(=O)O)c(CCCOc2ccc(C#CCN(C)C)cc2F)s1 [Example 22, 2-{3-[(1,3-Benzothiazol-2-yl)amino]-4-methyl-5H,6H,7H-pyrrolo[2,3-c]pyridazin-7-yl}-5-(3-{4-[3-(dimethylamino)prop-1-yn-1-yl]-2-fluorophenoxy}propyl)-1,3-thiazole-4-carboxylic acid]
[1]
  pKi: 8.52
H146 cells
  pIC50: 7.90
[2]
  pKi: 10.60
MOLT-4 cells
  pIC50: 8.47

## Cc1c(Nc2nc3ccccc3s2)nnc2c1ccn2-c1ccc(-c2cnn(CC34CC5CC(CC(C5)C3)C4)c2C)c(C(=O)O)n1 [Example 23]
[1]
  pKi: 8.96
H146 cells
  pIC50: 8.56
[2]
  pKi: 10.29
MOLT-4 cells
  pIC50: 9.02

## Cc1c(Nc2nc3ccccc3s2)nnc2c1CCCN2c1nc(C(=O)O)c(CCCOc2ccc(C#CCN(C)C)cc2F)s1 [Example 27, 2-[3-(1,3-Benzothiazol-2-ylamino)-4-methyl-6,7-dihydro-5H-pyrido[2,3-c]pyridazin-8-yl]-5-[3-[4-[3-(dimethylamino)prop-1-ynyl]-2-fluoro-phenoxy]propyl]thiazole-4-carboxylic acid]
[1]
  pKi: > 9.00
H146 cells
  pIC50: 8.19
[2]
  pKi: 11.07

## CN(C)CC#Cc1ccc(OCCCc2sc(N3CCCc4c3nnc(Nc3nc5ccccc5s3)c4C3CC3)nc2C(=O)O)c(F)c1 [Example 30, 2-{3-[(1,3-Benzothiazol-2-yl)amino]-4-cyclopropyl-5H,6H,7H,8H-pyrido[2,3-c]pyridazin-8-yl}-5-(3-{4-[3-(dimethylamino)prop-1-yn-1-yl]-2-fluorophenoxy}propyl)-1,3-thiazole-4-carboxylic acid]
[1]
  pKi: > 9.00
H146 cells
  pIC50: 8.18
[2]
  pKi: 11.44
MOLT-4 cells
  pIC50: 9.11

## Cc1c(Nc2nc3ccccc3s2)nnc2c1CCCCN2c1nc(C(=O)O)c(CCCOc2ccc(C#CCN(C)C)cc2F)s1 [Example 31, 2-{3-[(1,3-Benzothiazol-2-yl)amino]-4-methyl-5H,6H,7H,8H,9H-pyridazino[3,4-b]azepin-9-yl}-5-(3-{4-[3-(dimethylamino)prop-1-yn-1-yl]-2-fluorophenoxy}propyl)-1,3-thiazole-4-carboxylic acid]
[1]
  pKi: > 9.00
H146 cells
  pIC50: 7.05
[2]
  pKi: 11.09
MOLT-4 cells
  pIC50: 7.83

## Cc1c(Nc2nc3ccccc3s2)nnc2c1CCCN2c1nc(C(=O)O)c(CCCOc2ccc(CN)cc2F)s1 [Example 35, 5-{3-[4-(Aminomethyl)-2-fluorophenoxy]propyl}-2-{3-[(1,3-benzothiazol-2-yl)amino]-4-methyl-5H,6H,7H,8H-pyrido[2,3-c]pyridazin-8-yl}-1,3-thiazole-4-carboxylic acid]
[1]
  pKi: > 9.00
H146 cells
  pIC50: 7.20
[2]
  pKi: 11.11
MOLT-4 cells
  pIC50: 7.52

## Cc1c(Nc2nc3ccccc3s2)nnc2c1CCCN2c1nc(C(=O)O)c(CCCOc2ccc(CCCN(C)C)cc2F)s1 [Example 36, 2-{3-[(1,3-Benzothiazol-2-yl)amino]-4-methyl-5H,6H,7H,8H-pyrido[2,3-c]pyridazin-8-yl}-5-(3-{4-[3-(dimethylamino)propyl]-2-fluorophenoxy}propyl)-1,3-thiazole-4-carboxylic acid]
[1]
  pKi: > 9.00
H146 cells
  pIC50: 8.26
[2]
  pKi: 11.77

## CN(C)CC#Cc1ccc(OCCCc2sc(N3CCc4cccc(C(=O)Nc5nc6ccccc6s5)c4C3)nc2C(=O)O)c(F)c1 [Example A-1155463]
[3]
  in vivo activity: exhibited in vivo activity

## Cc1c(-c2ccc(N3CCc4cccc(C(=O)Nc5nc6ccccc6s5)c4C3)nc2C(=O)O)cnn1CC12CC3CC(CC(C3)C1)C2 [Example A-1331852]
Molt-4
  in vitro and in vivo activity: in vitro and in vivo activity
[3]
  in vivo activity: exhibited in vivo activity
